# Experimental data as given in PubChem BioAssay (NCI).
#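 All cell lines were grown in 96-well plates and treated with compound for 48 hours. Abbreviation: GI50, concentration required for 50% inhibition of growth. At the TGI there is no net growth.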
# Columns and labels:
# Assay in all cases: inhibition of tumour cell growth, NCI panel, 48 h
# [1] = system: MDA-MB-435
# [2] = system: NCI-H522 lung
# [3] = system: HT29 colon
# [4] = system: HCT-15 colon
# [5] = system: SK-MEL-2 melanoma
# [6] = system: CAKI-1 renal
# [7] = system: PC-3 prostate
# [8] = system: TK-10 renal
# [9] = system: SF-295 CNS
# [10] = system: SN12C renal
# [11] = system: COLO 205 colon
# [12] = system: U251 CNS
# [13] = system: SF-268 CNS
# [14] = system: ACHN renal
# [15] = system: OVCAR-5 ovarian
# [16] = system: A549 NSCLC
# [17] = system: OVCAR-4 ovarian
# [18] = system: NCI-H226 lung
# [19] = system: SNB-75 CNS
# [20] = system: SF-539 CNS
# [21] = system: MCF7 breast
# [22] = system: EKVX NSCLC
# [23] = system: HCT-116 colon
# [24] = system: SK-MEL-5 melanoma
# [25] = system: KM12 colon
# [26] = system: HOP-62 NSCLC
# [27] = system: OVCAR-3 ovarian
# [28] = system: M14 melanoma
# [29] = system: DU-145 prostate
# [30] = system: HS 578T breast
# [31] = system: UACC-257 melanoma
# [32] = system: NCI-H460 lung
# [33] = system: HCC-2998 colon
# [34] = system: LOX IMVI melanoma
# [35] = system: SK-MEL-28 melanoma
# [36] = system: SW-620 colon
# [37] = system: A498 renal
# [38] = system: 786-0 renal
# [39] = system: HOP-92 NSCLC
# [40] = system: SNB-19 CNS
# [41] = system: MALME-3M melanoma
# [42] = system: BT-549 breast
# [43] = system: SK-OV-3 ovarian
# [44] = system: IGROV1 ovarian
# [45] = system: UACC-62 melanoma
# [46] = system: RPMI-8226 leukemia
# [47] = system: NCI-H23 lung
# [48] = system: UO-31 renal
# [49] = system: OVCAR-8 ovarian
# [50] = system: MDA-MB-231 breast
# [51] = system: MDA-N
# [52] = system: MOLT-4 leukemia
# [53] = system: RXF 393 renal
# [54] = system: K-562 leukemia
# [55] = system: CCRF-CEM leukemia
# [56] = system: T-47D breast
# [57] = system: HL-60(TB) leukemia
# [58] = system: NCI/ADR-RES ovarian
# [59] = system: SR leukemia
structure (smiles),measurement,setting,value
COc1cc(/C=C/C(C)=O)ccc1OP(=O)(O)O,TGI,[1],> 100 µM
same,TGI,[2],> 100 µM
same,TGI,[3],> 100 µM
same,TGI,[4],> 100 µM
same,TGI,[5],> 100 µM
same,TGI,[6],> 100 µM
same,TGI,[7],> 100 µM
same,TGI,[8],> 100 µM
same,TGI,[9],> 100 µM
same,TGI,[10],> 100 µM
same,TGI,[11],> 100 µM
same,TGI,[12],> 100 µM
same,TGI,[13],> 100 µM
same,TGI,[14],> 100 µM
same,TGI,[15],> 100 µM
same,TGI,[16],> 100 µM
same,TGI,[17],> 100 µM
same,TGI,[18],> 100 µM
same,TGI,[19],> 100 µM
same,TGI,[20],> 100 µM
same,TGI,[21],> 100 µM
same,TGI,[22],> 100 µM
same,TGI,[23],> 100 µM
same,TGI,[24],> 100 µM
same,TGI,[25],> 100 µM
same,TGI,[26],> 100 µM
same,TGI,[27],> 100 µM
same,TGI,[28],> 100 µM
same,TGI,[29],> 100 µM
same,TGI,[30],> 100 µM
same,TGI,[31],> 100 µM
same,TGI,[32],> 100 µM
same,TGI,[33],> 100 µM
same,TGI,[34],> 100 µM
same,TGI,[35],> 100 µM
same,TGI,[36],> 100 µM
same,TGI,[37],> 100 µM
same,TGI,[38],> 100 µM
same,TGI,[39],> 100 µM
same,TGI,[40],> 100 µM
same,TGI,[41],> 100 µM
same,TGI,[42],> 100 µM
same,TGI,[43],> 100 µM
same,TGI,[44],> 100 µM
same,TGI,[45],> 100 µM
same,TGI,[46],> 100 µM
same,TGI,[47],> 100 µM
same,TGI,[48],> 100 µM
same,TGI,[49],> 100 µM
same,TGI,[50],> 100 µM
same,TGI,[51],> 100 µM
same,TGI,[52],> 100 µM
same,TGI,[53],> 100 µM
CC1(C)N=C(N)N=C(N)N1c1ccc(F)c(C(F)(F)F)c1,GI50,[1],0.239 µM
same,TGI,[1],> 100 µM
same,GI50,[2],3.78 µM
same,TGI,[2],> 100 µM
same,GI50,[3],0.363 µM
same,TGI,[3],> 100 µM
same,GI50,[4],1.58 µM
same,TGI,[4],> 100 µM
same,GI50,[54],0.121 µM
same,TGI,[54],> 100 µM
same,GI50,[5],> 27.9 µM
same,TGI,[5],> 100 µM
same,GI50,[6],4.92 µM
same,TGI,[6],> 93.1 µM
same,GI50,[7],0.256 µM
same,TGI,[7],> 100 µM
same,GI50,[55],0.532 µM
same,TGI,[55],> 100 µM
same,GI50,[8],3.4 µM
same,TGI,[8],> 100 µM
same,GI50,[9],0.408 µM
same,GI50,[10],5.13 µM
same,TGI,[10],> 100 µM
same,GI50,[11],5.11 µM
same,TGI,[11],> 100 µM
same,GI50,[12],0.503 µM
same,TGI,[12],> 100 µM
same,GI50,[13],0.158 µM
same,TGI,[13],> 100 µM
same,GI50,[14],2.28 µM
same,TGI,[14],> 100 µM
same,GI50,[56],> 90.7 µM
same,TGI,[56],> 100 µM
same,GI50,[15],> 100 µM
same,TGI,[15],> 100 µM
same,GI50,[16],0.31 µM
same,GI50,[17],22.6 µM
same,TGI,[17],> 100 µM
same,GI50,[18],> 27.6 µM
same,TGI,[18],> 100 µM
same,TGI,[19],> 100 µM
same,GI50,[20],0.71 µM
same,TGI,[20],> 100 µM
same,GI50,[21],0.998 µM
same,TGI,[21],> 100 µM
same,GI50,[22],1.53 µM
same,TGI,[22],> 100 µM
same,GI50,[23],0.172 µM
same,TGI,[23],> 100 µM
same,GI50,[24],3.04 µM
same,TGI,[24],> 100 µM
same,GI50,[25],1.81 µM
same,TGI,[25],> 100 µM
same,TGI,[26],> 100 µM
same,GI50,[27],5.62 µM
same,TGI,[27],> 100 µM
same,GI50,[28],0.827 µM
same,TGI,[28],> 100 µM
same,GI50,[29],3.18 µM
same,TGI,[29],> 100 µM
same,GI50,[30],21.2 µM
same,TGI,[30],> 100 µM
same,GI50,[31],> 57.8 µM
same,TGI,[31],> 100 µM
same,GI50,[32],0.42 µM
same,TGI,[32],> 100 µM
same,GI50,[33],1.85 µM
same,TGI,[33],> 100 µM
same,GI50,[34],0.4 µM
same,TGI,[34],> 100 µM
same,GI50,[35],15.9 µM
same,TGI,[35],> 100 µM
same,GI50,[36],0.233 µM
same,TGI,[36],> 100 µM
same,GI50,[37],9.84 µM
same,TGI,[37],> 100 µM
same,GI50,[38],0.543 µM
same,TGI,[38],> 100 µM
same,GI50,[39],12.4 µM
same,TGI,[39],> 100 µM
same,GI50,[40],4.47 µM
same,TGI,[40],> 100 µM
same,GI50,[41],26.7 µM
same,TGI,[41],> 100 µM
same,GI50,[42],1.96 µM
same,TGI,[42],> 87.9 µM
same,GI50,[57],0.438 µM
same,TGI,[57],> 100 µM
same,GI50,[58],> 83.6 µM
same,TGI,[58],> 100 µM
same,GI50,[59],0.444 µM
same,TGI,[59],> 100 µM
same,GI50,[43],10.7 µM
same,TGI,[43],> 100 µM
same,GI50,[44],0.53 µM
same,TGI,[44],> 100 µM
same,GI50,[45],2.25 µM
same,TGI,[45],> 100 µM
same,GI50,[46],3.42 µM
same,TGI,[46],> 100 µM
same,GI50,[47],2.53 µM
same,TGI,[47],> 100 µM
same,GI50,[48],8.86 µM
same,TGI,[48],> 100 µM
same,GI50,[49],0.597 µM
same,TGI,[49],> 100 µM
same,GI50,[50],> 100 µM
same,TGI,[50],> 100 µM
same,GI50,[52],0.727 µM
same,TGI,[52],> 100 µM
same,GI50,[53],> 31.5 µM
same,TGI,[53],> 100 µM
CCOc1ccccc1/C=C1\NC(=O)N(/C=C2\C(=O)Oc3ccccc3C2=O)C1=O,TGI,[1],> 100 µM
same,TGI,[2],> 100 µM
same,TGI,[3],> 100 µM
same,TGI,[4],> 100 µM
same,TGI,[5],> 100 µM
same,TGI,[6],> 100 µM
same,TGI,[7],> 100 µM
same,TGI,[55],59.1 µM
same,TGI,[8],74.7 µM
same,TGI,[9],> 100 µM
same,TGI,[10],> 100 µM
same,TGI,[11],> 100 µM
same,TGI,[12],> 100 µM
same,TGI,[13],> 100 µM
same,TGI,[14],> 100 µM
same,TGI,[15],> 100 µM
same,TGI,[16],> 100 µM
same,TGI,[17],> 100 µM
same,TGI,[18],> 100 µM
same,TGI,[19],> 100 µM
same,TGI,[20],> 100 µM
same,TGI,[21],> 100 µM
same,TGI,[22],> 100 µM
same,TGI,[23],> 100 µM
same,TGI,[24],57.9 µM
same,TGI,[25],> 100 µM
same,TGI,[26],> 100 µM
same,TGI,[27],> 100 µM
same,TGI,[28],> 100 µM
same,TGI,[29],> 100 µM
same,TGI,[30],> 100 µM
same,TGI,[31],> 100 µM
same,TGI,[32],> 100 µM
same,TGI,[33],> 100 µM
same,TGI,[34],> 100 µM
same,TGI,[35],> 100 µM
same,TGI,[36],> 100 µM
same,TGI,[38],> 100 µM
same,TGI,[39],67.9 µM
same,TGI,[40],> 100 µM
same,TGI,[42],> 100 µM
same,TGI,[57],74.4 µM
same,TGI,[58],> 100 µM
same,TGI,[43],> 100 µM
same,TGI,[44],> 100 µM
same,TGI,[45],> 100 µM
same,TGI,[47],95.5 µM
same,TGI,[48],75 µM
same,TGI,[49],> 100 µM
same,TGI,[50],> 100 µM
same,TGI,[51],> 100 µM
same,TGI,[52],64.3 µM
same,TGI,[53],> 100 µM
